According to ChEMBL document CHEMBL1201862, “PubChem BioAssay data set” (2004):
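Compound exposure: 48 hours, 5 concentrations, 96-well plates. GI50 is the concentration that inhibits growth by half.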 Activity calls are given as the source filed them. Cut-off read from the data, not from the text of the source: active = GI50 up to about 1.1 µM and inactive = higher.

How the values were obtained:
Experiment in all cases: NCI-60 cell line screen, 48 h
786-0 = system: 786-0
CCRF-CEM = system: CCRF-CEM
HCC 2998 = system: HCC 2998
HT-29 = system: HT-29
LOX IMVI = system: LOX IMVI
MOLT-4 = system: MOLT-4
Malme-3M = system: Malme-3M
NCI-H23 = system: NCI-H23
OVCAR-4 = system: OVCAR-4
SF-268 = system: SF-268
SF-295 = system: SF-295
SK-MEL-28 = system: SK-MEL-28
SNB-19 = system: SNB-19
SNB-75 = system: SNB-75
SW-620 = system: SW-620
TK-10 = system: TK-10
UACC-62 = system: UACC-62
SK-MEL-2 = system: SK-MEL-2

| SMILES | GI50 (786-0) | GI50 (CCRF-CEM) | GI50 (HCC 2998) | GI50 (HT-29) | GI50 (LOX IMVI) | GI50 (MOLT-4) | GI50 (Malme-3M) | GI50 (NCI-H23) | GI50 (OVCAR-4) | GI50 (SF-268) | GI50 (SF-295) | GI50 (SK-MEL-28) | GI50 (SNB-19) | GI50 (SNB-75) | GI50 (SW-620) | GI50 (TK-10) | GI50 (UACC-62) | GI50 (SK-MEL-2) |
| --- | --- | --- | --- | --- | --- | --- | --- | --- | --- | --- | --- | --- | --- | --- | --- | --- | --- | --- |
| O=C(/C=C/c1ccccc1)Oc1cccc2cccnc12 | > 44.4 µM (inactive) | 3.18 µM (inactive) | 43.2 µM (inactive) | 7.93 µM (inactive) | 9.64 µM (inactive) | 3.2 µM (inactive) | 3.8 µM (inactive) | 3.72 µM (inactive) | 6.87 µM (inactive) | 2.23 µM (inactive) | 8.28 µM (inactive) | 16.4 µM (inactive) | 31.4 µM (inactive) | 14.3 µM (inactive) | 3.82 µM (inactive) | > 84.5 µM (inactive) | 5.47 µM (inactive) | – |
| CC(Oc1ccc2c(-c3ccc(Cl)cc3)cc(=O)oc2c1)C(=O)O (stereo unspecified) | > 100 µM (inactive) | > 100 µM (inactive) | > 100 µM (inactive) | > 100 µM (inactive) | > 100 µM (inactive) | > 100 µM (inactive) | > 100 µM (inactive) | > 100 µM (inactive) | > 100 µM (inactive) | > 100 µM (inactive) | > 100 µM (inactive) | > 100 µM (inactive) | > 100 µM (inactive) | > 100 µM (inactive) | > 100 µM (inactive) | > 100 µM (inactive) | > 100 µM (inactive) | – |
| COC(=O)C12CC(C3CC31)C1CC12 (stereo unspecified) | > 100 µM (inactive) | > 100 µM (inactive) | > 100 µM (inactive) | > 100 µM (inactive) | > 100 µM (inactive) | > 100 µM (inactive) | > 100 µM (inactive) | > 100 µM (inactive) | > 100 µM (inactive) | > 100 µM (inactive) | > 100 µM (inactive) | > 100 µM (inactive) | > 100 µM (inactive) | – | > 100 µM (inactive) | > 100 µM (inactive) | > 100 µM (inactive) | – |
| C#C[C@]1(O)CCC2C3CCc4cc(Oc5nc(F)nc(-n6c(C)nc7cc8ccccc8cc76)n5)ccc4C3CCC21C (stereo partly specified) | 57 µM (inactive) | 36.9 µM (inactive) | 53.5 µM (inactive) | 31 µM (inactive) | 40.1 µM (inactive) | 27.4 µM (inactive) | 47.3 µM (inactive) | 59.4 µM (inactive) | – | 47.6 µM (inactive) | 33.8 µM (inactive) | > 10 µM (inactive) | 53.1 µM (inactive) | 35.6 µM (inactive) | 35 µM (inactive) | 65.9 µM (inactive) | 29.2 µM (inactive) | 45.3 µM (inactive) |
| CC1=Nn2c(nnc2-c2ccc(Cl)cc2)NC(C)(C)C1 | > 100 µM (inactive) | > 100 µM (inactive) | > 100 µM (inactive) | > 100 µM (inactive) | > 100 µM (inactive) | > 100 µM (inactive) | > 100 µM (inactive) | > 100 µM (inactive) | > 100 µM (inactive) | > 100 µM (inactive) | > 100 µM (inactive) | > 100 µM (inactive) | > 100 µM (inactive) | – | > 100 µM (inactive) | > 100 µM (inactive) | > 100 µM (inactive) | > 100 µM (inactive) |
| O=c1n(-c2ccccc2)c(=O)n2n1C1C=CC2C2C(C1)C2(Cl)Cl (stereo unspecified) | > 100 µM (inactive) | > 100 µM (inactive) | > 100 µM (inactive) | – | > 100 µM (inactive) | > 100 µM (inactive) | > 100 µM (inactive) | – | > 100 µM (inactive) | > 100 µM (inactive) | > 100 µM (inactive) | – | > 100 µM (inactive) | > 100 µM (inactive) | > 100 µM (inactive) | > 100 µM (inactive) | > 100 µM (inactive) | > 100 µM (inactive) |
| CC1=C(C(=O)Nc2ccccc2)C(c2ccccc2)C(C(=O)Nc2ccccc2)=C(C)N1 | 76.4 µM (inactive) | – | 31 µM (inactive) | 32.2 µM (inactive) | – | 18.7 µM (inactive) | > 100 µM (inactive) | 43.1 µM (inactive) | 60.7 µM (inactive) | 42.5 µM (inactive) | 38.5 µM (inactive) | 55.8 µM (inactive) | 94.4 µM (inactive) | 37.3 µM (inactive) | 47.5 µM (inactive) | 91 µM (inactive) | 15.4 µM (inactive) | 32.1 µM (inactive) |
| CCN(CC)CCNc1ccc2ncn3c4cc(O)ccc4c(=O)c1c23 | 2.48 µM (inactive) | 1.32 µM (inactive) | 3.84 µM (inactive) | 1.95 µM (inactive) | 1.87 µM (inactive) | 0.668 µM (active) | 3.97 µM (inactive) | 3.55 µM (inactive) | 2.45 µM (inactive) | 2.09 µM (inactive) | 2.5 µM (inactive) | 4.73 µM (inactive) | 3.9 µM (inactive) | 4.39 µM (inactive) | 1.88 µM (inactive) | 6.65 µM (inactive) | 5.65 µM (inactive) | 8.59 µM (inactive) |
| Cc1cc(C)c(-c2noc(-c3ccc(Cl)cc3)c2C2=NCCCN2)c(C)c1 | 7.45 µM (inactive) | 20.6 µM (inactive) | 15.1 µM (inactive) | 13.5 µM (inactive) | 16.2 µM (inactive) | 16.8 µM (inactive) | 19.4 µM (inactive) | 17.9 µM (inactive) | 97.1 µM (inactive) | 11.3 µM (inactive) | 11.2 µM (inactive) | 14.8 µM (inactive) | 21.3 µM (inactive) | – | 23.4 µM (inactive) | – | 16.3 µM (inactive) | 20.9 µM (inactive) |
| CC(C)(C)c1cc(C(O)(C(F)(F)F)C(F)(F)F)c2c(c1)C(C(F)(F)F)(C(F)(F)F)OC(C)(C(C)(C)C)N2 (stereo unspecified) | 3.34 µM (inactive) | – | 6.56 µM (inactive) | 3.4 µM (inactive) | – | 2.54 µM (inactive) | 6.65 µM (inactive) | 2 µM (inactive) | 4.62 µM (inactive) | – | 4.73 µM (inactive) | 8.28 µM (inactive) | 5.41 µM (inactive) | 2 µM (inactive) | 3.68 µM (inactive) | 3.27 µM (inactive) | 3.58 µM (inactive) | 4.72 µM (inactive) |
| c1cnc2c(c1)-n1cccc1C1(CCOCC1)NN2 | > 100 µM (inactive) | > 100 µM (inactive) | > 100 µM (inactive) | > 100 µM (inactive) | – | > 100 µM (inactive) | > 100 µM (inactive) | > 100 µM (inactive) | > 100 µM (inactive) | > 100 µM (inactive) | > 100 µM (inactive) | > 100 µM (inactive) | > 100 µM (inactive) | > 100 µM (inactive) | > 100 µM (inactive) | > 100 µM (inactive) | – | > 100 µM (inactive) |
| O=C1CCCCCCC2=C1C(Sc1ccccc1)CC2 (stereo unspecified) | 17.7 µM (inactive) | 9.08 µM (inactive) | – | 34 µM (inactive) | 15.8 µM (inactive) | 18.1 µM (inactive) | > 100 µM (inactive) | 33.9 µM (inactive) | 63.2 µM (inactive) | 19.9 µM (inactive) | 45 µM (inactive) | 32.4 µM (inactive) | 40.3 µM (inactive) | 21.1 µM (inactive) | 36.3 µM (inactive) | 36.6 µM (inactive) | 36.1 µM (inactive) | – |
| Cc1ccc(NC(=O)C2C(=O)N(c3ccc(C)cc3)C(=O)/C2=N\NC(N)=S)cc1 (stereo unspecified) | > 100 µM (inactive) | – | > 100 µM (inactive) | > 100 µM (inactive) | > 100 µM (inactive) | > 100 µM (inactive) | > 100 µM (inactive) | > 100 µM (inactive) | > 100 µM (inactive) | > 100 µM (inactive) | > 100 µM (inactive) | > 100 µM (inactive) | > 100 µM (inactive) | > 100 µM (inactive) | > 100 µM (inactive) | > 100 µM (inactive) | > 100 µM (inactive) | > 100 µM (inactive) |
| CCCCCCCCCCCCC(Br)C(=O)SCCNC(=O)CCNC(=O)[C@@H](O)C(C)(C)COP(=O)(O)OP(=O)(O)OCC1OC(n2cnc3c(N)ncnc32)C(O)C1OP(=O)(O)O (stereo partly specified) | > 56.5 µM (inactive) | 35.4 µM (inactive) | > 56.5 µM (inactive) | > 56.5 µM (inactive) | 28.1 µM (inactive) | – | > 56.5 µM (inactive) | > 56.5 µM (inactive) | > 56.5 µM (inactive) | > 56.5 µM (inactive) | > 56.5 µM (inactive) | > 56.5 µM (inactive) | > 56.5 µM (inactive) | > 56.5 µM (inactive) | > 56.5 µM (inactive) | > 56.5 µM (inactive) | > 56.5 µM (inactive) | > 56.5 µM (inactive) |
| CC12CO[C@@](C)(CC(S(=O)(=O)c3ccccc3)C1)O2 (stereo partly specified) | > 100 µM (inactive) | > 100 µM (inactive) | > 100 µM (inactive) | > 100 µM (inactive) | – | > 100 µM (inactive) | > 100 µM (inactive) | > 100 µM (inactive) | > 100 µM (inactive) | > 100 µM (inactive) | > 100 µM (inactive) | > 100 µM (inactive) | > 100 µM (inactive) | 37 µM (inactive) | > 100 µM (inactive) | – | > 100 µM (inactive) | > 100 µM (inactive) |
| C=C1C(=O)C23C(CC(OC(C)=O)C1[C@@H]2OC(C)=O)C1(C)C(OC(C)=O)CCC(C)(C)C1C[C@@H]3OC(C)=O (stereo partly specified) | 1.43 µM (inactive) | – | 1.84 µM (inactive) | 1.01 µM (active) | 1.24 µM (inactive) | 0.365 µM (active) | 1.55 µM (inactive) | – | 1.91 µM (inactive) | 1.56 µM (inactive) | 1.46 µM (inactive) | 1.87 µM (inactive) | 1.86 µM (inactive) | 1.52 µM (inactive) | 1.26 µM (inactive) | – | 1.9 µM (inactive) | 1.93 µM (inactive) |
